Test results taken from patent US8236858B2, “Substituted aryl-indole compounds and their kynurenine/kynuramine-like metabolites as therapeutic agents” (Neurim Pharmaceuticals (1991) Ltd., priority 2006, dated 2012).

What was measured:
NMDA-activated currents = assay: Electrophysiological characterisation of NMDA-activated currents in freshly isolated hippocampal neurones (whole-cell patch clamp); format: cell-based, Wistar rats; conditions: for % Inhibition Peak Current / % Inhibition Steady State Current: 1 μM substance, 10 μM glycine, 300 μM L-aspartate, holding potential −70 mV, mean of at least 4 cells; for blocking activity on NMDA-activated currents (in words): summary of Table 3, 1 μM
Description: Isolation of hippocampal neurons: Wistar rats (12-14 days) were decapitated without anesthesia and the hippocampus was removed. It was manually cut into slices (0.2-0.4 mm), in a solution containing (mM): 150 NaCl; 5 KCL; 1.25 NaH2PO4; 2 CaCl2; 2 MgCl2; 26 NaHCO3; 20 glucose. Slices were preincubated in this solution for 30 min at room temperature. The enzymatic treatment proceeded in the same solution with lower Ca^2+ concentration (0.5 mm) containing 0.4 mg/ml protease from aspergillus oryzae. The incubation in the enzyme solution proceeded at 32° C. within 10 min. Slices were kept subsequently in enzyme-free solution containing normal Ca^2±concentration and used within 6-8 h for obtaining isolated neurons. Throughout the entire procedure the solutions were continuously saturated with a 95% O2 and 5% CO2 gas mixture to maintain pH of 7.4. For cell dissociation the slice was transferred into the extracellular solution containing (mM): 150 NaCl; 5 KCl; 2 CaCl2; 10 n-2-hydroxyethylpiperazine-n′-2-ethanesulphonic acid (Hepes); pH adjusted with NaOH to 7.4. Single cells were isolated from CA and CA3 zones of hippocampal slices by vibrodissociation method. […] After isolation they were usually suitable for the recording for 1-2 h.
Salines and chemicals: The contents of the extracellular solution was as follows (in mM): 130 NaCl, 5KCl, 2CaCl2, 20 n-2-hydroxyethylpiperazine-n′-2-ethansulfonic acid (Hepes); 0.1 μm TTX, 10 μm glycine, […] 1-aspartate; pH was adjusted with NaOH to 7.4.
The contents of the intracellular solution were as follows (in mM): 110 CsF, 20 Tris-HCl (pH=7.2). L-aspartate and glycine solutions were prepared on the day of experiment.
The tested substances were dissolved in DMSO.
Current recording and data analysis: The drug-containing solutions were applied by the fast “concentration clamp” method using “jumping table” set-up. The currents were recorded with patch clamp technique in the whole-cell configuration. Recording of the currents was performed using EPC-7 L/M patch-clamp amplifier.
NMDA-activated currents: The currents were filtered at 3 kHz (three-pole active Bessel filter) digitally sampled at the rate 6000 μs per point for NMDA activated currents. NMDA-induced transmembrane currents were measured in the presence of 10 μM glycine and 300 μM L-aspartate in the control and test solutions. The currents were recorded at holding potential −70 mV.
Calculations: The inhibition of current at 1 μM of the substance was averaged at least for 4 cells. The effect of substance was measured as the mean ratio I/Io where I was the current under the action of substance and Io was the current in control conditions.

MPTP-treated mice = assay: Anti-Parkinsonian activity in MPTP-treated mice with a sub threshold dose of L-DOPA (motor activity counts); format: in vivo, C57 BL/6 mice; conditions: for reversal of the motor deficits of MPTP-treated mice (in words): 3 mg/kg, combined with a sub-threshold (inactive) dose of L-Dopa; for LOCOMOTION / REARING / TOTAL ACTIVITY: MPTP-treated mice (2×40 mg/kg s.c.), compound 3 mg/kg orally + 5 mg/kg L-Dopa s.c., counts with Vehicle (no MPTP) = 100%
Description: Animals: six month old male C57 BL/6 mice, weighing 22-25 g were used. Following arrival at the laboratory, the mice were allowed to acclimatize for two weeks in a room with controlled temperature (21±1° C.), and a constant light-dark schedule (12 hr on/12 hr off, lights on between 06.00 and 18.00 hrs). Free access to food and water was maintained throughout. They were housed in groups of 12 animals and tested only during the hours of light (08.00-15.00 hrs). All testing was performed in a normally lighted room.
Behavioural measurements and apparatus: An automated device, consisting of macrolon rodent test cages (40×25×15 cm), each placed within two series of infra-red beams (at two different heights, one low and one high, 2 and 8 cm, respectively, above the surface of the sawdust, 1 cm deep), was used to measure spontaneous and/or drug-induced motor activity of 1-methyl 4-phenyl 1,2,3,6-tetrahydropyridine (MPTP) and control mice. The following parameters were measured: LOCOMOTION was measured by the low grid of infrared beams. Counts were registered only when the mouse in the horizontal plane, ambulating around the test-cage. REARING was registered throughout the time when at least one high level beam was interrupted, i.e. the number of counts registered was proportional to the amount of time spent rearing. TOTAL ACTIVITY was measured by a sensor (a pick-up similar to a gramophone needle, mounted on a lever with a counterweight) with which the test cage was constantly in contact. The sensor registered all types of vibration received from the test cage, such as those produced both by locomotion and rearing as well as shaking, tremors, scratching and grooming.
Behavioral measurements (locomotion, rearing and total activity): Twelve days after MPTP injections (2×40 mg/kg, s.c., 24 hr interval), the mice were administered orally with the different compounds at 3 mg/kg or vehicle (0.1% Tween-80 in 1% methylcellulose) and immediately thereafter placed in the activity test chambers and their motor behaviors were monitored for 60 min. After 60 min, the mice were injected with 5 mg/kg L-Dopa (s.c) and then replaced in the test chamber and activity measurements maintained for an additional 300 min.
Table 2 presents the locomotion, rearing and total activity counts of MPTP-treated and control mice administered either tested substances or vehicle administered with a sub threshold dose of L-Dopa.

GSK3β = biological target: T1, GSK3β (Homo sapiens, UniProt P49841); assay: Evaluation of GSK3β activity: inhibition of purified GSK3β, [γ-32P]ATP / GS-2 peptide filter assay; format: biochemical; conditions: for IC50: purified GSK3β expressed in Sf9 cells, 15 μM ATP, GS-2 peptide substrate, 30 min at 30° C.; for inhibiting activity on GSK3β activity (in words): summary of Table 1
T1 construct: made in house; host or cells: insect Sf9 cells
T1 sequence (P49841 whole entry, species assumed): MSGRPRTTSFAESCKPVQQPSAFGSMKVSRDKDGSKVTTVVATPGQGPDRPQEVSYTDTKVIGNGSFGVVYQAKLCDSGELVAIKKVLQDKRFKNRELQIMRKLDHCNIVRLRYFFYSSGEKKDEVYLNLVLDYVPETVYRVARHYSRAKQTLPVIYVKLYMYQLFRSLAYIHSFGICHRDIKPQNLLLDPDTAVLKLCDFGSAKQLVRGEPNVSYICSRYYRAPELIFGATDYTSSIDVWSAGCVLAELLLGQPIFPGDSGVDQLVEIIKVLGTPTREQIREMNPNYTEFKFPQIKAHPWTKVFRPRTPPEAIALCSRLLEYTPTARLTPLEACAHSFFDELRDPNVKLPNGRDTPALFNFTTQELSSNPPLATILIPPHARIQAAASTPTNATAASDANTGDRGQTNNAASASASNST
Description: Compounds were evaluated for inhibition against purified GSK3β. GSK3β was expressed in and purified from insect Sf9 cells. Compounds (10 μM) were assayed; following a 1/100 dilution of the enzyme in 1 mg/ml BSA, 10 mM DTT, with 5 μl of 40 μM GS-2 peptide as a substrate, in a buffer, in the presence of 15 μM [γ-^32P]ATP (3000 Ci/mmol; 1 mCi/ml) in a final volume of 30 μl. After 30-min incubation at 30° C., 25-μl aliquots of supernatant were spotted onto 2.5×3 cm pieces of Whatman P81 phosphocellulose paper, and, 20 s later, the filters were washed five times (for at least 5 min each time) in a solution of 10 ml of phosphoric acid/liter of water. The wet filters were counted in the presence of 1 ml of scintillation fluid.

| Compound | % Inhibition Peak Current (NMDA-activated currents) [%] | % Inhibition Steady State Current (NMDA-activated currents) [%] | blocking activity on NMDA-activated currents (in words) (NMDA-activated currents) | reversal of the motor deficits of MPTP-treated mice (in words) (MPTP-treated mice) | LOCOMOTION (MPTP-treated mice) [%] | REARING (MPTP-treated mice) [%] | TOTAL ACTIVITY (MPTP-treated mice) [%] | IC50 (GSK3β) [µM] | inhibiting activity on GSK3β activity (in words) (GSK3β) |
| --- | --- | --- | --- | --- | --- | --- | --- | --- | --- |
| O=[N+]([O-])c1ccccc1NCCc1c[nH]c2ccccc12 [N-(2-Nitrophenyl)-tryptamine] | 90.93 | 66.83 | significant blocking activity | significantly reversed the motor deficits | 53 | 100 | 90 | 9.9 | significant inhibiting activity |
| N#Cc1cc([N+](=O)[O-])ccc1NCCc1c[nH]c2ccccc12 [N-(2-cyano-4-nitrophenyl)-tryptamine] | 83.1 | 82.44 | significant blocking activity | significantly reversed the motor deficits | 52 | 98 | 73 | 12.7 | significant inhibiting activity |
| Nc1ccccc1C(=O)CCNc1ccc(Br)cc1[N+](=O)[O-] [2-(2-aminobenzoyl)-N-2-nitro-4-bromo-phenylethylamine] | 90.85 | 88.77 | – | – | – | – | – | – | – |
| COc1ccc2[nH]cc(CCNc3ccccc3[N+](=O)[O-])c2c1 [N-(2-Nitrophenyl)-5-methoxytryptamine] | 78 | 77.3 | significant blocking activity | significantly reversed the motor deficits | 44 | 90 | 73 | 14.1 | significant inhibiting activity |
| Nc1ccccc1C(=O)CCNc1ccccc1[N+](=O)[O-] [2-(2-aminobenzoyl)-N-2-nitrophenylethylamine] | – | – | – | – | 17.6 | 25 | 45 | 18.5 | – |
| COc1ccc2[nH]cc(CCNc3ccc(S(C)(=O)=O)cc3[N+](=O)[O-])c2c1 [N-(4-methylsulfonyl-2-nitrophenyl)-5-methoxytryptamine] | – | – | – | significantly reversed the motor deficits | 41 | 74 | 70 | – | – |
| Nc1ccccc1C(=O)CCNc1ccc([N+](=O)[O-])cc1Br [2-(2-aminobenzoyl)-N-2-bromo-4-nitro-phenylethylamine] | 86.23 | 90.78 | – | – | – | – | – | – | – |
| O=[N+]([O-])c1cc(Br)ccc1NCCc1c[nH]c2ccccc12 [N-(2-nitro-4-bromophenyl)-tryptamine] | 95.8 | 83 | significant blocking activity | – | – | – | – | – | – |
| COc1ccc2[nH]cc(CCNc3ccc(C(=O)O)cc3[N+](=O)[O-])c2c1 [N-(4-Carboxy-2-nitrophenyl)-5-methoxytryptamine] | 89.92 | 74.14 | significant blocking activity | – | 22 | 30 | 46 | 21.7 | significant inhibiting activity |
| N#Cc1ccc(NCCc2c[nH]c3ccccc23)cc1C#N [N-(3,4-dicyanophenyl)-tryptamine] | 93.4 | 66.4 | significant blocking activity | – | 18 | 25 | 47 | 14.8 | significant inhibiting activity |
| COc1ccc2[nH]cc(CCNc3ccc([N+](=O)[O-])cc3C#N)c2c1 [N-(2-cyano-4-nitrophenyl)-5-methoxytryptamine] | 96.21 | 88.21 | – | – | – | – | – | – | – |
| COc1ccc2[nH]cc(CCNc3ccc(Br)cc3[N+](=O)[O-])c2c1 [N-(4-bromo-2-nitrophenyl)-5-methoxytryptamine] | 104.2 | 78.18 | significant blocking activity | – | 16 | 24 | 46 | – | – |
| N#Cc1ccc(NCCC(=O)c2ccccc2N)c([N+](=O)[O-])c1 [2-(2-aminobenzoyl)-N-2-nitro-4-cyano-phenylethylamine] | 85.95 | 87.24 | – | – | 17 | 29 | 46 | 29.3 | significant inhibiting activity |
| CS(=O)(=O)c1ccc(NCCC(=O)c2ccccc2N)c([N+](=O)[O-])c1 [2-(2-aminobenzoyl)-N-2-nitro-4-methylsulfonyl-phenylethylamine] | – | – | – | significantly reversed the motor deficits | 54 | 100 | 72 | – | – |
| COc1ccc2[nH]cc(CCNc3ccc([N+](=O)[O-])cc3C(=O)O)c2c1 [N-(2-Carboxy-4-nitrophenyl)-5-methoxytryptamine] | 84 | 93.6 | – | – | – | – | – | – | – |
| COc1ccc2[nH]cc(CCNc3ccc([N+](=O)[O-])cc3Br)c2c1 [N-(2-bromo-4-nitrophenyl)-5-methoxytryptamine] | 91.53 | 86.57 | – | – | – | – | – | – | – |
| O=C(O)c1ccc(NCCc2c[nH]c3ccccc23)c([N+](=O)[O-])c1 [N-(4-Carboxy-2-nitrophenyl)-tryptamine] | 101.6 | 92.84 | – | – | – | – | – | – | – |
